The values that follow come from ChEMBL document CHEMBL1955717, “Synthesis and in vitro study of novel neuraminidase inhibitors against avian influenza virus” (Bioorg Med Chem, 2012).

pIC50: −log10 of the molar value.

Assay [1] addresses T1, Neuraminidase (Influenza A virus, UniProt B4URF0). Details: species or system H7N3.
Assay [2] concerns the target T1, Neuraminidase. Details: species or system H7N1.

T1 sequence (B4URF0 whole entry): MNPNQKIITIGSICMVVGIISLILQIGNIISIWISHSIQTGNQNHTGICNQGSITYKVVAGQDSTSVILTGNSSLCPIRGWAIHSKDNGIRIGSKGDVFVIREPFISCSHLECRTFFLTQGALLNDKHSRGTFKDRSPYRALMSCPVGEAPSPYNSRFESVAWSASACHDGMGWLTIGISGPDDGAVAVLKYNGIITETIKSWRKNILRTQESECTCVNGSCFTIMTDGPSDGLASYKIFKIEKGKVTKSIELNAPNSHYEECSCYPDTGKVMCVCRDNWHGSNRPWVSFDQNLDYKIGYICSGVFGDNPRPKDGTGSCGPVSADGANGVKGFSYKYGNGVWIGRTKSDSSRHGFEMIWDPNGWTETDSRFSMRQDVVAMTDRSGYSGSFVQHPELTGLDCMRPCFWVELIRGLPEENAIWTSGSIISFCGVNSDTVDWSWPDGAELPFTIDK

Take `C/C=C/C(=O)N[C@@H]1[C@@H](N=[N+]=[N-])CC(C(=O)O)=C[C@H]1OC(CC)CC`: the negative logarithm of the IC50 (pIC50) on Neuraminidase [1] is 4.00; on Neuraminidase [2] it was 4.29.
The like results for `CCC(CC)O[C@@H]1C=C(C(=O)O)C[C@H](N=[N+]=[N-])[C@H]1NC(C)=O` were, in that order, 8.66 and 7.07.
The matching figures for `C/C=C/C(=O)N[C@@H]1[C@@H](N)CC(C(=O)O)=C[C@H]1OC(CC)CC`: 5.35 and 3.86.
In the case of `C=CC(=O)N[C@@H]1[C@@H](N)CC(C(=O)O)=C[C@H]1OC(CC)CC`, the negative logarithm of the IC50 (pIC50) at Neuraminidase [1] was 10.00; against Neuraminidase [2], 7.50.
Turning to `C=CC(=O)N[C@@H]1[C@@H](NCC(C)C)CC(C(=O)O)=C[C@H]1OC(CC)CC`, the pIC50 at Neuraminidase [1] was 7.55; on Neuraminidase [2], 7.84.
